This note sets out measurements from patent US10154997B2, “Treatment of parasitic diseases using KDAC inhibitor compounds” (Washington University, priority 2015, dated 2018).

One experiment has as its system H. contortus. Briefly: Endoparasites dose response assay (Endoparasites_DR), H. contortus. The following applies: Haemonchus contortus, 96 h.
The next experiment relates to L929 mouse fibroblast. Briefly: Cytotoxicity viability assay (CYT vt). Format: cell-based.
Experiment [1] concerns parasites (nematodes and protists). The experiment in a line: Compound screening in parasites, summary statements.
The next experiment concerns B. malayi. The experiment in a line: Endoparasites dose response assay (Endoparasites_DR), B. malayi. The arrangement: species or system Brugia malayi. The following applies: nematode B. malayi.
The subject of a further experiment is human cancer cell lines. Briefly: Activity on human cancer cell lines. Format: cell-based.

Read-outs that look alike come from different tables or passages of the source.

Turning to `CCCCCCCC(=O)SCC/C=C/[C@@H]1CC(=O)NCc2nc(cs2)C2=N[C@@](C)(CS2)C(=O)N[C@@H](C(C)C)C(=O)O1` [SD-L-148, Largazole, reference compound], the IC50 was 7.1 µM with H. contortus and 0.101 µM with L929 mouse fibroblast (Mus musculus, L929).

For `CC(C)(C)OC(=O)Nc1cccc(C(=O)/C=C/c2ccc(/C=C/C(=O)NO)cc2)c1` [MC2780], the pan-parasite potential entry in experiment [1] (across parasites screened) is listed as “demonstrated pan-parasite potential”.

On to `Cn1cc(/C=C/C(=O)c2cccc(NC(=O)OC(C)(C)C)c2)cc1C(=O)NO` [MC2776], for which the EC50 (in general, the midpoint of the concentration-response curve) with B. malayi worked out at 4.39 µM. Besides, the IC50 in the experiment with L929 mouse fibroblast (host-cell line, read-out: activity in the host-cell line) is above 10 µM; in the experiment on human cancer cell lines, above 10 µM. Moreover, the “efficacy in the protists” value in experiment [1] (any of the protists) is recorded as “did not show any efficacy”.
